Measurements as given in ChEMBL document CHEMBL1155332 (Bioorg Med Chem Lett, 2009).

Test: Clearance in iv dosed rat
Type: ADME, organism-based
Settings: in vivo
With `CC(C)(O)C(F)(Cc1cccc(-c2cc(C(C)(C)S(C)(=O)=O)cc3cccnc23)c1)c1ccc(S(C)(=O)=O)cc1` (centres undefined) the clearance was 17 mL/min/kg.
Work on `CC(C)(c1cc(-c2cccc(CC(c3ccc(S(C)(=O)=O)cc3)S(C)(=O)=O)c2)c2ncccc2c1)S(C)(=O)=O` (centres undefined) yielded a clearance of 76 mL/min/kg.
`Cc1noc(/C(=C/c2cccc(-c3cc(C(C)(C)S(C)(=O)=O)cc4cccnc34)c2)c2ccc(S(C)(=O)=O)cc2)n1` gave a clearance of 7 mL/min/kg.
Compound `CC(C)(O)C(Cc1cccc(-c2cc(C(C)(C)S(C)(=O)=O)cc3cccnc23)c1)c1ccc(S(C)(=O)=O)cc1` (centres undefined) has a clearance of 50 mL/min/kg.
Compound `CC(C)(c1cc(-c2cccc(CC(F)(c3ccc(S(C)(=O)=O)cc3)C(O)(C3CC3)C3CC3)c2)c2ncccc2c1)S(C)(=O)=O.Cl` (single isomer, unassigned) has a clearance of 11 mL/min/kg.
Work on `CC(C)(c1cc(-c2cccc(CC(CO)c3ccc(S(C)(=O)=O)cc3)c2)c2ncccc2c1)S(C)(=O)=O` (centres undefined) yielded a clearance of 51 mL/min/kg.
Work on `CC(C)(c1cc(-c2cccc(CC(F)(c3ccc(S(C)(=O)=O)cc3)C(O)(C3CC3)C3CC3)c2)c2ncccc2c1)S(C)(=O)=O` (single isomer, unassigned; Enantio B) yielded a clearance of 38 mL/min/kg.
For `COP(=O)(OC)C(F)(Cc1cccc(-c2cc(C(C)(C)S(C)(=O)=O)cc3cccnc23)c1)c1ccc(S(C)(=O)=O)cc1` (centres undefined), the clearance was 177 mL/min/kg.
With `CC(C)(c1cc(-c2cccc(CC(F)(c3ccc(S(C)(=O)=O)cc3)C(O)(C3CC3)C3CC3)c2)c2ncccc2c1)S(C)(=O)=O.CCl` (centres undefined) the clearance was 8 mL/min/kg.
With `COP(=O)(OC)C(Cc1cccc(-c2cc(C(C)(C)S(C)(=O)=O)cc3cccnc23)c1)c1ccc(S(C)(=O)=O)cc1` (centres undefined) the clearance was 48 mL/min/kg.
For `CC(C)(c1cc(-c2cccc(CC(F)(c3ccc(S(C)(=O)=O)cc3)S(=O)(=O)C3CC3)c2)c2ncccc2c1)S(C)(=O)=O` (single isomer, unassigned; Enantio B), the clearance was 3 mL/min/kg.
Compound `CC(C)(c1cc(-c2cccc(CC(F)(c3ccc(S(C)(=O)=O)cc3)S(C)(=O)=O)c2)c2ncccc2c1)S(C)(=O)=O` (centres undefined) has a clearance of 9 mL/min/kg.
For `CC(C)(c1cc(-c2cccc(CC(F)(c3ccc(S(C)(=O)=O)cc3)S(=O)(=O)C3CC3)c2)c2ncccc2c1)S(C)(=O)=O.Cl` (single isomer, unassigned), the clearance was 9 mL/min/kg.

Test: Bioavailability in […] rat
Type: ADME, organism-based
Settings: in vivo
Work on `CC(C)(O)C(F)(Cc1cccc(-c2cc(C(C)(C)S(C)(=O)=O)cc3cccnc23)c1)c1ccc(S(C)(=O)=O)cc1` (centres undefined) yielded a bioavailability of 84%.
`CC(C)(c1cc(-c2cccc(CC(c3ccc(S(C)(=O)=O)cc3)S(C)(=O)=O)c2)c2ncccc2c1)S(C)(=O)=O` (centres undefined) gave a bioavailability of 1%.
`Cc1noc(/C(=C/c2cccc(-c3cc(C(C)(C)S(C)(=O)=O)cc4cccnc34)c2)c2ccc(S(C)(=O)=O)cc2)n1` showed a bioavailability of 100%.
In the case of `CC(C)(O)C(Cc1cccc(-c2cc(C(C)(C)S(C)(=O)=O)cc3cccnc23)c1)c1ccc(S(C)(=O)=O)cc1` (centres undefined), the bioavailability was 21%.
`CC(C)(c1cc(-c2cccc(CC(F)(c3ccc(S(C)(=O)=O)cc3)C(O)(C3CC3)C3CC3)c2)c2ncccc2c1)S(C)(=O)=O.Cl` (single isomer, unassigned) showed a bioavailability of 69%.
With `CC(C)(c1cc(-c2cccc(CC(CO)c3ccc(S(C)(=O)=O)cc3)c2)c2ncccc2c1)S(C)(=O)=O` (centres undefined) the bioavailability was 9%.
Compound `CC(C)(c1cc(-c2cccc(CC(F)(c3ccc(S(C)(=O)=O)cc3)C(O)(C3CC3)C3CC3)c2)c2ncccc2c1)S(C)(=O)=O` (single isomer, unassigned; Enantio B) has a bioavailability of 99%.
Work on `COP(=O)(OC)C(F)(Cc1cccc(-c2cc(C(C)(C)S(C)(=O)=O)cc3cccnc23)c1)c1ccc(S(C)(=O)=O)cc1` (centres undefined) yielded a bioavailability of 51%.
`CC(C)(c1cc(-c2cccc(CC(F)(c3ccc(S(C)(=O)=O)cc3)C(O)(C3CC3)C3CC3)c2)c2ncccc2c1)S(C)(=O)=O.CCl` (centres undefined) showed a bioavailability of 99%.
Work on `COP(=O)(OC)C(Cc1cccc(-c2cc(C(C)(C)S(C)(=O)=O)cc3cccnc23)c1)c1ccc(S(C)(=O)=O)cc1` (centres undefined) yielded a bioavailability of 3%.
In the case of `CC(C)(c1cc(-c2cccc(CC(F)(c3ccc(S(C)(=O)=O)cc3)S(=O)(=O)C3CC3)c2)c2ncccc2c1)S(C)(=O)=O` (single isomer, unassigned; Enantio B), the bioavailability was 99%.
With `CC(C)(c1cc(-c2cccc(CC(F)(c3ccc(S(C)(=O)=O)cc3)S(C)(=O)=O)c2)c2ncccc2c1)S(C)(=O)=O` (centres undefined) the bioavailability was 53%.
With `CC(C)(c1cc(-c2cccc(CC(F)(c3ccc(S(C)(=O)=O)cc3)S(=O)(=O)C3CC3)c2)c2ncccc2c1)S(C)(=O)=O.Cl` (single isomer, unassigned) the bioavailability was 36%.

Test: Cmax in squirrel monkey at 0.4 mg/kg
Type: ADME, organism-based
Design: dose 0.4 mg/kg
Settings: saimiri, in vivo
`CC(C)(c1cc(-c2cccc(CC(F)(c3ccc(S(C)(=O)=O)cc3)C(O)(C3CC3)C3CC3)c2)c2ncccc2c1)S(C)(=O)=O` (single isomer, unassigned; Enantio B) gave a Cmax of 100 nM.

Test: Cmax in squirrel monkey at 10 mg/kg
Type: ADME, organism-based
Design: dose 10 mg/kg
Settings: saimiri, in vivo
In the case of `Cc1noc(/C(=C/c2cccc(-c3cc(C(C)(C)S(C)(=O)=O)cc4cccnc34)c2)c2ccc(S(C)(=O)=O)cc2)n1`, the Cmax was 3800 nM.

Test: Cmax in squirrel monkey at 2 mg/kg
Type: ADME, organism-based
Design: dose 2 mg/kg
Settings: saimiri, in vivo
`CC(C)(c1cc(-c2cccc(CC(F)(c3ccc(S(C)(=O)=O)cc3)S(=O)(=O)C3CC3)c2)c2ncccc2c1)S(C)(=O)=O` (single isomer, unassigned; Enantio B) gave a Cmax of 1900 nM.
